For data set [1], the target named is Microtubule-associated protein tau (Homo sapiens, UniProt P10636). In words: Binding affinity to human Tau aggregates after 30 mins by Thioflavin-S-based fluorescence assay.
Data set [2] concerns the target Amyloid-beta precursor protein (Homo sapiens, UniProt P05067). In words: Binding affinity to amyloid beta(1 to 42) aggregates after 30 mins by Thioflavin-S-based fluorescence assay.
The species entered for data set [3] is Homo sapiens. In words: Selectivity ratio of Ki for amyloid beta(1 to 42) to Ki for human Tau.
The species entered for data set [4] is Homo sapiens. Put plainly: Selectivity ratio of Kd for amyloid beta(1 to 42) to Kd for human Tau.
Data set [5] deals with Blood. Put plainly: Biodistribution in ddY mouse blood at 3.3 to 6.7 kBq, iv after 2 mins by gamma counting. Format: ADME, organism-based. The following applies: in vivo.
In data set [6] the test system is Blood. In words: Biodistribution in ddY mouse blood at 3.3 to 6.7 kBq, iv after 10 mins by gamma counting. Format: ADME, organism-based. To be noted: in vivo.
For data set [7], the system named is Blood. Put plainly: Biodistribution in ddY mouse blood at 3.3 to 6.7 kBq, iv after 30 mins by gamma counting. Format: ADME, organism-based. To be noted: in vivo, 0.5 h.
The subject of data set [8] is Blood. In words: Biodistribution in ddY mouse blood at 3.3 to 6.7 kBq, iv after 60 mins by gamma counting. Format: ADME, organism-based. The following applies: in vivo, 1 h.
Data set [9] concerns Liver. In words: Biodistribution in ddY mouse liver at 3.3 to 6.7 kBq, iv after 2 mins by gamma counting. Format: ADME, organism-based. The following applies: in vivo.
The test system of data set [10] is Liver. In words: Biodistribution in ddY mouse liver at 3.3 to 6.7 kBq, iv after 10 mins by gamma counting. It counts as ADME, organism-based. The following applies: in vivo.
The subject of data set [11] is Liver. Put plainly: Biodistribution in ddY mouse liver at 3.3 to 6.7 kBq, iv after 30 mins by gamma counting. The following applies: in vivo, 0.5 h. It counts as ADME, organism-based.
Data set [12] has as its system Liver. Put plainly: Biodistribution in ddY mouse liver at 3.3 to 6.7 kBq, iv after 60 mins by gamma counting. To be noted: in vivo, 1 h. Format: ADME, organism-based.
The test system of data set [13] is Kidney. In words: Biodistribution in ddY mouse kidney at 3.3 to 6.7 kBq, iv after 2 mins by gamma counting. The following applies: in vivo. It counts as ADME, organism-based.
For data set [14], the system named is Kidney. In words: Biodistribution in ddY mouse kidney at 3.3 to 6.7 kBq, iv after 10 mins by gamma counting. Format: ADME, organism-based. The following applies: in vivo.
Data set [15] concerns Kidney. In words: Biodistribution in ddY mouse kidney at 3.3 to 6.7 kBq, iv after 30 mins by gamma counting. It counts as ADME, organism-based. The following applies: in vivo, 0.5 h.
In data set [16] the test system is Kidney. Put plainly: Biodistribution in ddY mouse kidney at 3.3 to 6.7 kBq, iv after 60 mins by gamma counting. It counts as ADME, organism-based. To be noted: in vivo, 1 h.
The subject of data set [17] is Intestine. Put plainly: Biodistribution in ddY mouse intestine at 3.3 to 6.7 kBq, iv after 2 mins by gamma counting. Format: ADME, organism-based. The following applies: in vivo.
Data set [18] relates to Intestine. Put plainly: Biodistribution in ddY mouse intestine at 3.3 to 6.7 kBq, iv after 10 mins by gamma counting. It counts as ADME, organism-based. The following applies: in vivo.
Data set [19] has as its system Intestine. In words: Biodistribution in ddY mouse intestine at 3.3 to 6.7 kBq, iv after 30 mins by gamma counting. The following applies: in vivo, 0.5 h. It counts as ADME, organism-based.
The test system of data set [20] is Intestine. In words: Biodistribution in ddY mouse intestine at 3.3 to 6.7 kBq, iv after 60 mins by gamma counting. Format: ADME, organism-based. To be noted: in vivo, 1 h.
Data set [21] concerns Spleen. Put plainly: Biodistribution in ddY mouse spleen at 3.3 to 6.7 kBq, iv after 2 mins by gamma counting. It counts as ADME, organism-based. To be noted: in vivo.
The test system of data set [22] is Spleen. In words: Biodistribution in ddY mouse spleen at 3.3 to 6.7 kBq, iv after 10 mins by gamma counting. It counts as ADME, organism-based. The following applies: in vivo.
Data set [23] has as its system Spleen. In words: Biodistribution in ddY mouse spleen at 3.3 to 6.7 kBq, iv after 30 mins by gamma counting. Format: ADME, organism-based. To be noted: in vivo, 0.5 h.
The subject of data set [24] is Spleen. In words: Biodistribution in ddY mouse spleen at 3.3 to 6.7 kBq, iv after 60 mins by gamma counting. To be noted: in vivo, 1 h. It counts as ADME, organism-based.
For data set [25], the system named is Pancreas. In words: Biodistribution in ddY mouse pancreas at 3.3 to 6.7 kBq, iv after 2 mins by gamma counting. It counts as ADME, organism-based. To be noted: in vivo.
Data set [26] has as its system Pancreas. In words: Biodistribution in ddY mouse pancreas at 3.3 to 6.7 kBq, iv after 10 mins by gamma counting. Format: ADME, organism-based. The following applies: in vivo.
Data set [27] relates to Pancreas. Put plainly: Biodistribution in ddY mouse pancreas at 3.3 to 6.7 kBq, iv after 30 mins by gamma counting. The following applies: in vivo, 0.5 h. It counts as ADME, organism-based.
Data set [28] concerns Pancreas. Put plainly: Biodistribution in ddY mouse pancreas at 3.3 to 6.7 kBq, iv after 60 mins by gamma counting. Format: ADME, organism-based. The following applies: in vivo, 1 h.
Data set [29] concerns Heart. Put plainly: Biodistribution in ddY mouse heart at 3.3 to 6.7 kBq, iv after 2 mins by gamma counting. Format: ADME, organism-based. To be noted: in vivo.
For data set [30], the system named is Heart. In words: Biodistribution in ddY mouse heart at 3.3 to 6.7 kBq, iv after 10 mins by gamma counting. Format: ADME, organism-based. The following applies: in vivo.
Data set [31] relates to Heart. Put plainly: Biodistribution in ddY mouse heart at 3.3 to 6.7 kBq, iv after 30 mins by gamma counting. To be noted: in vivo, 0.5 h. Format: ADME, organism-based.
In data set [32] the test system is Heart. Put plainly: Biodistribution in ddY mouse heart at 3.3 to 6.7 kBq, iv after 60 mins by gamma counting. To be noted: in vivo, 1 h. Format: ADME, organism-based.
In data set [33] the test system is Stomach. Put plainly: Biodistribution in ddY mouse stomach assessed per organ at 3.3 to 6.7 kBq, iv after 2 mins by gamma counting. It counts as ADME, organism-based. The following applies: in vivo.
For data set [34], the system named is Stomach. Put plainly: Biodistribution in ddY mouse stomach assessed per organ at 3.3 to 6.7 kBq, iv after 10 mins by gamma counting. It counts as ADME, organism-based. To be noted: in vivo.
For data set [35], the system named is Stomach. In words: Biodistribution in ddY mouse stomach assessed per organ at 3.3 to 6.7 kBq, iv after 30 mins by gamma counting. It counts as ADME, organism-based. To be noted: in vivo, 0.5 h.
For data set [36], the system named is Stomach. Put plainly: Biodistribution in ddY mouse stomach assessed per organ at 3.3 to 6.7 kBq, iv after 60 mins by gamma counting. Format: ADME, organism-based. The following applies: in vivo, 1 h.
Data set [37] has as its system Brain. Put plainly: Biodistribution in ddY mouse brain at 3.3 to 6.7 kBq, iv after 2 mins by gamma counting. Format: ADME, organism-based. The following applies: in vivo.
The test system of data set [38] is Brain. Put plainly: Biodistribution in ddY mouse brain at 3.3 to 6.7 kBq, iv after 10 mins by gamma counting. Format: ADME, organism-based. To be noted: in vivo.
Data set [39] concerns Brain. Put plainly: Biodistribution in ddY mouse brain at 3.3 to 6.7 kBq, iv after 30 mins by gamma counting. Format: ADME, organism-based. The following applies: in vivo, 0.5 h.
For data set [40], the system named is Brain. In words: Biodistribution in ddY mouse brain at 3.3 to 6.7 kBq, iv after 60 mins by gamma counting. Format: ADME, organism-based. To be noted: in vivo, 1 h.
Data set [41] has as its system Brain. In words: Ratio of drug uptake in ddY mouse brain after 2 mins to drug uptake in ddY mouse brain after 30 mins. Format: ADME, tissue-based. The following applies: in vivo.
The species named for data set [42] is Homo sapiens. In words: Selectivity ratio of EC50 for amyloid beta(1 to 42) to EC50 for human Tau.

The structures appear in SMILES notation.

By Ki is commonly meant the equilibrium dissociation constant of an inhibitor or competing ligand from its target.

Chain of Amyloid-beta precursor protein (P05067 whole entry): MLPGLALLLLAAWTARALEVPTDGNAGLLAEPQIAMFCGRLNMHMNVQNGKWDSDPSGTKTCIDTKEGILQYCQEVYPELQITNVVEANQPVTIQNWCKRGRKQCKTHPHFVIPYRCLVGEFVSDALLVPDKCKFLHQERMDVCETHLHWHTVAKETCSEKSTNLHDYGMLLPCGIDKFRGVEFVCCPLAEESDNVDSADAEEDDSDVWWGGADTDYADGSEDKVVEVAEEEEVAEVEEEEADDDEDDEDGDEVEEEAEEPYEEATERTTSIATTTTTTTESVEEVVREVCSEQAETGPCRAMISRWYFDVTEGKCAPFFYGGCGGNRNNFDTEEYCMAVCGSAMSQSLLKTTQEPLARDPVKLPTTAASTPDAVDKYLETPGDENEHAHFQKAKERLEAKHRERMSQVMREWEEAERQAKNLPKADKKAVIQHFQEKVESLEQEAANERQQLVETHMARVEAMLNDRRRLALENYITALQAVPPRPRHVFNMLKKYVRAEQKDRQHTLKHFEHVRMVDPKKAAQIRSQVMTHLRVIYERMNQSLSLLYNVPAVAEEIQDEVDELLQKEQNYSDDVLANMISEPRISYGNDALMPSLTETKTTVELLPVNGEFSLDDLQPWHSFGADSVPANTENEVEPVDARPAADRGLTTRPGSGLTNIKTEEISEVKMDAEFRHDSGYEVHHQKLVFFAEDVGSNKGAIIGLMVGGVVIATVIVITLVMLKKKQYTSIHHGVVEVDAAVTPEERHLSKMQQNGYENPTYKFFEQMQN
Chain of Microtubule-associated protein tau (P10636 whole entry): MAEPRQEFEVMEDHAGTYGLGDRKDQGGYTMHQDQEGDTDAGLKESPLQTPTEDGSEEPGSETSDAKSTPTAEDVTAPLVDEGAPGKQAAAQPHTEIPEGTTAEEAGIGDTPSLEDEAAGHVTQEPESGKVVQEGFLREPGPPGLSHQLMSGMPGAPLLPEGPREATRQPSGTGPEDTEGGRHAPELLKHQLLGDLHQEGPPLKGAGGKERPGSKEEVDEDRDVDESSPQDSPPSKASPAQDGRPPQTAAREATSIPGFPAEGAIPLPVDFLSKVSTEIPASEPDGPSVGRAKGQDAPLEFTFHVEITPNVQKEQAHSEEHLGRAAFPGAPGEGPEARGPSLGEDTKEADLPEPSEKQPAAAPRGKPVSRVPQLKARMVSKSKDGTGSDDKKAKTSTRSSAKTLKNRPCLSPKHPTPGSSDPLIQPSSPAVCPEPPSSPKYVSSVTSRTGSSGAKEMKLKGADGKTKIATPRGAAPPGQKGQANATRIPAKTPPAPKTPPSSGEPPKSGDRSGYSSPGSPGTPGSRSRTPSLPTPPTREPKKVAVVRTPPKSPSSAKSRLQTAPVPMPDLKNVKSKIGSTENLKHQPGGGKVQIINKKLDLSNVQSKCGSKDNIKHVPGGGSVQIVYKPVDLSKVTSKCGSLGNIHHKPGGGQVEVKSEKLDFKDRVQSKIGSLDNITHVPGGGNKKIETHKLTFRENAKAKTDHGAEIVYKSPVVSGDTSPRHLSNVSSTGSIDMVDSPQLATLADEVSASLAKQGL

`CNc1ccc(C=C2C(=O)Nc3ccc(I)cc32)cc1`: the Ki in data set [1] turned out to be 1430 nM; in data set [2], 5060 nM. Moreover, in the data set filed under Homo sapiens [3], the Ratio Ki was determined as 3.54.
In the case of `CN(C)c1ccc(/N=N/c2nc3ccc(OCCOCCOCCF)cc3s2)cc1`, the Ratio in the data set listed under Homo sapiens [4] came to 1.54.
In the case of `CN(C)c1ccc(C=C2C(=O)Nc3ccc([125I])cc32)cc1`, the Drug uptake with Blood [5] turned out to be 1.77 % ID/g; in the data set with Blood [6], 1.64 % ID/g; in the data set with Blood [7], 1.07 % ID/g; with Blood [8] it was 0.69 % ID/g; with Liver [9], 12.37 % ID/g; in the data set with Liver [10], 10.56 % ID/g. Further, the Drug uptake was found to be 9.43 % ID/g in the data set on Liver [11]; 6.89 % ID/g in the data set on Liver [12]; 9.63 % ID/g in the data set with Kidney [13]; 5.04 % ID/g in the data set with Kidney [14]; 3.83 % ID/g in the data set on Kidney [15]; 2.51 % ID/g with Kidney [16]. The Drug uptake with Intestine [17] turned out to be 1.57 % ID/g; with Intestine [18] it was 2.54 % ID/g; with Intestine [19] it was 8.33 % ID/g; in the data set on Intestine [20] it was 12.11 % ID/g; with Spleen [21] it was 3.66 % ID/g; with Spleen [22] it was 3.37 % ID/g. In addition, the Drug uptake in the data set on Spleen [23] was 1.2 % ID/g; in the data set with Spleen [24], 0.66 % ID/g; with Pancreas [25] it was 5.08 % ID/g; with Pancreas [26], 3.19 % ID/g; with Pancreas [27] it was 1.76 % ID/g; in the data set on Pancreas [28] it was 0.6 % ID/g. The Drug uptake came to 10.17 % ID/g in the data set on Heart [29]; 2.53 % ID/g in the data set on Heart [30]; 1.3 % ID/g with Heart [31]; 0.61 % ID/g with Heart [32]; 0.91 %ID with Stomach [33]; 1.64 %ID in the data set with Stomach [34]. Moreover, the Drug uptake worked out at 3.52 %ID with Stomach [35]; 3.57 %ID in the data set on Stomach [36]; 2.47 % ID/g with Brain [37]; 2.1 % ID/g in the data set on Brain [38]; 1.43 % ID/g in the data set with Brain [39]; 0.44 % ID/g in the data set on Brain [40]. Moreover, the Ratio with Brain [41] is 1.7.
Take `CN(C)c1ccc(/N=N/c2nc3ccc(OCCOCCOCC[18F])cc3s2)cc1`: the Ratio in the data set on Brain [41] stood at 1.23.
For the molecule `CNc1ccc(-c2ccc3ccccc3n2)cc1`, the Ratio EC50 in the data set listed under Homo sapiens [42] worked out at 1.65.
With `CN(C)c1ccc(C=C2C(=O)Nc3ccc(I)cc32)cc1`, the Ki in [1] came to 599 nM; in data set [2] it was 4670 nM. Besides, the Ratio Ki in the data set listed under Homo sapiens [3] amounted to 7.8.
The matching figures for `CNc1ccc(/C=C2\Nc3ccc(I)cc3C2=O)cc1`: 112 nM, 116 nM and 1.03.

For the origin of these results see ChEMBL document CHEMBL2069290, “Synthesis and biological evaluation of novel oxindole derivatives for imaging neurofibrillary tangles in Alzheimer's disease” (Bioorg Med Chem Lett, 2012).
